Key:
Rhizopus stolonifer = assay: B.4 Protective action against Rhizopus stolonifer on rye bread (Pumpernickel); conditions: Pumpernickel slices; mixtures 1:50 diluted with water, sorbic acid 0.1% solution; after one week of incubation
Experimental: B.4 Protective Action Against Rhizopus stolonifer on Rye Bread (“Pumpernickel”)
Sterile slices of Pumpernickel were each sprayed with water (control), a 0.1% sorbic acid solution (a standard preservative) or the mixture of example 1 or of example 8 (1:50 diluted with water). For inoculation with the fungus, small disks of blotting paper were soaked with a spore suspension of Rhizopus stolonifer and placed onto the center of Pumpernickel slices. After one week of incubation, the degree of fungus formation was examined.

Plasmopara viticola [1] = assay: B.5.1 Protective and curative treatment against Plasmopara viticola in grapevines (half-leaf); type: in vivo; conditions: example 12 diluted 1:100, examples 13/14 1:200, 0.05% Silwet L-77, ca. 2 μl/cm2, 6 days after first inoculation
Experimental: (§1) Potted grapevines were inoculated with Plasmopara viticola both before foliar treatment with the active agent and after washing the active agent coating off the leaves in order to test the effect of the residual depot of actives. To ensure a good comparability of the results and avoid or at least strongly minimize falsification of the effects, e.g. due to the use of leaves of different physiological age or of different expositions, a half-leaf treatment was carried out: In each case only one half of a leaf was treated, while the other half remained untreated and served as a control and reference for determining efficacy; the two halves being separated by the middle leaf vein. […]
6 days after the first inoculation the plants were placed for 12 h into a humid chamber and then the extent of infection was determined visually and the efficacy W was calculated from the infected leave surface according to the above Abbot's formula.
The expected efficacies for active compound combinations (i.e. secondary magnesium and calcium phosphonate) were determined using Colby's formula (Colby, S. R., “Calculating synergistic and antagonistic responses of herbicide combinations”, Weeds, 15, pp. 20-22, 1967) and compared to the observed efficacies. […]

Plasmopara viticola [2] = assay: B.5.2 Curative treatment against Plasmopara viticola in grapevines; type: in vivo; conditions: without second inoculation, half-leaf, example 12 diluted 1:100, examples 13/14 1:200, 5 days after inoculation
Experimental: as §1, with “vein. For this purpose a precision sprayer was used for applying the active compounds on the one leaf half, while the half which was to stay untreated was covered with a blotting paper during spraying.” for “vein.”
(§2) The experiment was carried out in analogy to B.5.1, however without the second inoculation. 5 days after the inoculation the plants were placed for 12 h into a humid chamber and then the extent of infection was determined visually and the efficacy W was calculated from the infected leave surface according to Abbot's formula. The expected efficacies for active compound combinations (i.e. secondary magnesium and calcium phosphonate) were determined using Colby's formula.

Plasmopara viticola [3] = assay: B.5.3 Protective treatment against Plasmopara viticola in grapevines; type: in vivo; conditions: without first inoculation, washed after 24 h, example 12 diluted 1:100, examples 13/14 1:200, 5 days after inoculation
Experimental: as §1, with “vein. For this purpose a precision sprayer was used for applying the active compounds on the one leaf half, while the half which was to stay untreated was covered with a blotting paper during spraying.” for “vein.”
as §2, with “the first” for “the second”

Erysiphe graminis = assay: B.6 Protective treatment against Erysiphe graminis in wheat; type: in vivo; conditions: wheat cultivar Kanzler sprayed to runoff, example 12 diluted 1:100, examples 13/14 1:200, inoculated after 24 h, 18 days after treatment
Experimental: For a treatment according to the invention, the reaction mixture obtained in example 12 was diluted with water in 1:100 v/v ratio, then 0.05% Silwet® L-77 was added. For comparison, the reaction mixtures obtained in examples 13 and 14, respectively, were diluted with water in 1:200 v/v ratio, then 0.05% Silwet® L-77 was added.
B.6 Protective Treatment Against Erysiphe graminis in Wheat
In a greenhouse, wheat plants of the cultivar Kanzler with 2-3 fully developed leaves were sprayed to runoff-point with either a suspension of the product of example 13 containing secondary magnesium phosphonate, or of the product of example 14 containing secondary calcium phosphonate, or of the product of example 12 containing secondary calcium and magnesium phosphonate; in each case diluted and supplemented with a wetting agent as defined in example B.5.1. After 24 h the plants were inoculated with conidia of Erysiphe graminis. 18 days after the treatment with the active compounds the extent of infection (formation of conidia) was determined visually and the efficacy W was calculated from the infected leave surface according to Abbot's formula. The expected efficacies for active compound combinations (i.e. secondary magnesium and calcium phosphonate) were determined using Colby's formula.

[4] = test system: Sphaerotheca fuliginea and Erysiphe cichoracearum; assay: B.7 Protective treatment against Sphaerotheca fuliginea and Erysiphe cichoracearum in cucumber; type: in vivo; conditions: Cucumis sativus half-leaf treatment, example 12 diluted 1:100, examples 13/14 1:200, inoculated after 24 h, 18 days after treatment
Experimental: as §1, with “vein. For this purpose a precision sprayer was used for applying the active compounds on the one leaf half, while the half which was to stay untreated was covered with a blotting paper during spraying.” for “vein.”
In a greenhouse, leaves of Cucumis sativus plants var. […] 18 days after the treatment with the active compounds the extent of infection (formation of conidia) was determined visually and the efficacy W was calculated from the infected leave surface according to Abbot's formula. The expected efficacies for active compound combinations (i.e. secondary magnesium and calcium phosphonate) were determined using Colby's formula.

powdery mildew = conditions: dogwood plants; untreated control 30%; from U.S. Pat. Nos. 5,736,164 and 5,800,837; cited from earlier work

Compound | Infected surface area (Rhizopus stolonifer) [%] | Observed efficacy (Plasmopara viticola [1]) [%] | Observed efficacy (Plasmopara viticola [2]) [%] | Observed efficacy (Plasmopara viticola [3]) [%] | Observed efficacy (Erysiphe graminis) [%] | Observed efficacy [4] [%] | leaves infected with powdery mildew (powdery mildew) [%]
C/C=C/C=C/C(=O)O [Sorbic acid, sorbic acid] | 40 |  |  |  |  |  | 
secondary magnesium phosphonate [Example 13] |  | 16.5 | 47.3 | 44.5 | 36.7 | 43.3 | 
potassium phosphonate |  |  |  |  |  |  | 100
secondary calcium phosphonate [Example 14] |  | 24.6 | 18.3 | 35.1 | 11.7 | 20.0 | 

From US12075784B2, “Mixtures containing secondary calcium and magnesium phosphonate and their use as fungicide or fertilizer” ([…] (haftungsbeschränkt), priority 2016, dated 2024)
